In patent US20230055237A1, “COMPOUNDS AND METHODS FOR THE TREATMENT OF CYSTIC FIBROSIS” (Flatley Discovery Lab, LLC, priority 2019, published 2023):

Molecular target: T1, CFTR (Homo sapiens, UniProt P13569, DEL508-508)
T1 construct: Primary CF airway epithelial cells were obtained from the UNC Cystic Fibrosis Tissue Procurement and Cell Culture Core; host or cells: primary CF airway epithelial cells, differentiated at the air-liquid interface
Assay: Equivalent current assay in primary CF airway epithelial cells (NAUC, combination with 1st site corrector FDL169 or VX-809)
Type: cell-based
Conditions: 37° C., 24 h; for Nauc @ 3 μM: test compound 3 μM in combination with 1st site corrector VX-809 (3 μM); for Nauc @ 10 μM: test compound 10 μM in combination with 1st site corrector VX-809 (3 μM)

T1 sequence (P13569 with tags, fused parts or gaps DEL508-508): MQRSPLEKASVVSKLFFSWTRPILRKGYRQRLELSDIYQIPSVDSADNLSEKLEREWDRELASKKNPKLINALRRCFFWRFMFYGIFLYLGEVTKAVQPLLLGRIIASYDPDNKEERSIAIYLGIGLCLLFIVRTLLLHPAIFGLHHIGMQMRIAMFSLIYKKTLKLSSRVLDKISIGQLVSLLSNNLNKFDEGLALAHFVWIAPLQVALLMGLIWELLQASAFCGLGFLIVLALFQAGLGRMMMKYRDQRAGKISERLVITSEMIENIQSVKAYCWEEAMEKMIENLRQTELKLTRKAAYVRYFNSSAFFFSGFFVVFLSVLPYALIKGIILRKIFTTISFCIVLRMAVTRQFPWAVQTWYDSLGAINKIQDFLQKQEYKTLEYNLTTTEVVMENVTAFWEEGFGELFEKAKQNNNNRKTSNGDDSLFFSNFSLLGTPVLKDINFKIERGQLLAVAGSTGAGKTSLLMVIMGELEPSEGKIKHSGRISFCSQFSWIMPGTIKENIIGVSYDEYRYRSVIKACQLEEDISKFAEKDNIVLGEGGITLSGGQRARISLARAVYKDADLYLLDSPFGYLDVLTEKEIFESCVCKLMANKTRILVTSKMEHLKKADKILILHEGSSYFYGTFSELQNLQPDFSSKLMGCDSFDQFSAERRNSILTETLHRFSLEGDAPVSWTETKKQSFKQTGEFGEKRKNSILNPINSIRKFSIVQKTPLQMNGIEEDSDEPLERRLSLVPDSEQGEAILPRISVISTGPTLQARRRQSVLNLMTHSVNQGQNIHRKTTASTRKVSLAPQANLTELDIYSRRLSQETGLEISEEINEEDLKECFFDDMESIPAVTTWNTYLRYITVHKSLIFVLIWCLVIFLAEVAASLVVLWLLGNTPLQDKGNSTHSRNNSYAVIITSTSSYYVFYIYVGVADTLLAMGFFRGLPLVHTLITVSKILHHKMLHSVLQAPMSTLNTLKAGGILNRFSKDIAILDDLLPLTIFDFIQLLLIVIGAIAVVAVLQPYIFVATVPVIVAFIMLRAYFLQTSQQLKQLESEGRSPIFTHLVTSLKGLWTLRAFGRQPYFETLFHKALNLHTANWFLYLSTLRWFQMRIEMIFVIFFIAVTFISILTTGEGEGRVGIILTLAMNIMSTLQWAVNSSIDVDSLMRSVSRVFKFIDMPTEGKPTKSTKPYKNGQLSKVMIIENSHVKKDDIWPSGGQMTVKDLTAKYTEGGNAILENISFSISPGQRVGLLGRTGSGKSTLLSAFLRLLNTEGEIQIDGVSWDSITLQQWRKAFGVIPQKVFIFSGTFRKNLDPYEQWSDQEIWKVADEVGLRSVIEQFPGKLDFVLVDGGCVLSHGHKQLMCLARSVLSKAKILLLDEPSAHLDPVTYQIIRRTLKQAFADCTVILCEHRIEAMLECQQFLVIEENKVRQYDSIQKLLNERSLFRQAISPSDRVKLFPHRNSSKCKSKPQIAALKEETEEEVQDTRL

| SMILES | Nauc @ 3 μM | Nauc @ 10 μM |
| --- | --- | --- |
| O=C(Nc1cncc(C(F)(F)F)n1)C1C2C[C@H](C(F)(F)F)CN2C2(C(=O)Nc3c(Cl)cc(Cl)cc32)C1C(=O)O (stereo partly drawn) [Example 18] | + (NAUC “+” refers to an observed NAUC <140% of positive control) | +++ (NAUC “+++” refers to an observed NAUC>170% of positive control) |
| O=C(Nc1cc(Cl)c(OC(F)F)c(Cl)c1)C1C2CCCN2C2(C(=O)Nc3c(Cl)cc(Cl)cc32)C1C(=O)O (stereo not drawn) [Example 19] | ++ (NAUC “++” refers to an observed NAUC 170-140% of positive control) | +++ (NAUC “+++” refers to an observed NAUC>170% of positive control) |
| O=C(Nc1cc(Cl)c(OC(F)F)c(Cl)c1)C1C2CC(F)(F)CN2C2(C(=O)Nc3c(Cl)cc(Cl)cc32)C1C(=O)O (stereo not drawn) [Example 20] | +++ (NAUC “+++” refers to an observed NAUC>170% of positive control) | +++ (NAUC “+++” refers to an observed NAUC>170% of positive control) |
| O=C(Nc1cncc(C(F)(F)F)n1)C1C2CC3(CC3)CN2C2(C(=O)Nc3c(Cl)cc(Cl)cc32)C1C(=O)O (stereo not drawn) [Example 21] | +++ (NAUC “+++” refers to an observed NAUC>170% of positive control) | +++ (NAUC “+++” refers to an observed NAUC>170% of positive control) |
| COc1cc(C(F)(F)F)cc(NC(=O)C2C3C[C@@](O)(C(F)(F)F)CN3C3(C(=O)Nc4c(Cl)cc(Cl)cc43)C2C(=O)O)n1 (stereo partly drawn) [Example 22] | ++ (NAUC “++” refers to an observed NAUC 170-140% of positive control) | +++ (NAUC “+++” refers to an observed NAUC>170% of positive control) |
| O=C(Nc1cncc(C(F)(F)F)n1)C1C2CC(F)(F)CN2C2(C(=O)Nc3c(Cl)cc(Cl)cc32)C1C(=O)O (stereo not drawn) [Example 23] | ++ (NAUC “++” refers to an observed NAUC 170-140% of positive control) | + (NAUC “+” refers to an observed NAUC <140% of positive control) |
| O=C(Nc1cc(Cl)cc(Cl)c1)C1CN(C(=O)CCc2ccccc2)C2(C(=O)Nc3c(Cl)cc(Cl)cc32)C1C(=O)O (stereo not drawn) [Example 24] | +++ (NAUC “+++” refers to an observed NAUC>170% of positive control) | + (NAUC “+” refers to an observed NAUC <140% of positive control) |
| O=C(Nc1cc(Cl)cc(Cl)c1)C1CN(S(=O)(=O)CCc2ccccc2)C2(C(=O)Nc3c(Cl)cc(Cl)cc32)C1C(=O)O (stereo not drawn) [Example 25] | + (NAUC “+” refers to an observed NAUC <140% of positive control) | ++ (NAUC “++” refers to an observed NAUC 170-140% of positive control) |
| CCC(=O)N1C(C(C)C)C(C(=O)Nc2cc(Cl)cc(Cl)c2)C(C(=O)O)C12C(=O)Nc1c(Cl)cc(Cl)cc12 (stereo not drawn) [Example 26] | ++ (NAUC “++” refers to an observed NAUC 170-140% of positive control) | +++ (NAUC “+++” refers to an observed NAUC>170% of positive control) |
| O=C(Nc1cc(Cl)cc(Cl)c1)C1C(C(=O)O)C(c2cc(Cl)cc(Cl)c2)N2CCCC12 (stereo not drawn) [Example 27] | ++ (NAUC “++” refers to an observed NAUC 170-140% of positive control) | ++ (NAUC “++” refers to an observed NAUC 170-140% of positive control) |
| O=C(Nc1cncc(C(F)(F)F)n1)C1C2CCCN2C2(C(=O)Nc3c(Cl)cc(Cl)cc32)C1C(=O)O (stereo not drawn) [Example 29] | ++ (NAUC “++” refers to an observed NAUC 170-140% of positive control) | +++ (NAUC “+++” refers to an observed NAUC>170% of positive control) |
| O=C(Nc1cc(Cl)cc(Cl)c1)C1CN(C(=O)Nc2ccccc2)C2(C(=O)Nc3c(Cl)cc(Cl)cc32)C1C(=O)O (stereo not drawn) [Example 30] | + (NAUC “+” refers to an observed NAUC <140% of positive control) | ++ (NAUC “++” refers to an observed NAUC 170-140% of positive control) |
| O=C(Nc1cc(Cl)cc(Cl)c1)C1CN(C(=O)NCc2ccccc2)C2(C(=O)Nc3c(Cl)cc(Cl)cc32)C1C(=O)O (stereo not drawn) [Example 31] | + (NAUC “+” refers to an observed NAUC <140% of positive control) | +++ (NAUC “+++” refers to an observed NAUC>170% of positive control) |
| O=C(Nc1cc(Cl)cc(Cl)c1)C1C(COCc2ccccc2)NC2(C(=O)Nc3c(Cl)cc(Cl)cc32)C1C(=O)O (stereo not drawn) [Example 32] | +++ (NAUC “+++” refers to an observed NAUC>170% of positive control) | +++ (NAUC “+++” refers to an observed NAUC>170% of positive control) |
| CC(C)C1NC2(C(=O)Nc3c(Cl)cc(Cl)cc32)C(C(=O)O)C1C(=O)Nc1cc(Cl)cc(Cl)c1 (stereo not drawn) [Example 33] | +++ (NAUC “+++” refers to an observed NAUC>170% of positive control) | +++ (NAUC “+++” refers to an observed NAUC>170% of positive control) |
| O=C(Nc1cc(Cl)cc(Cl)c1)C1C(Cc2ccccc2)NC2(C(=O)Nc3c(Cl)cc(Cl)cc32)C1C(=O)O (stereo not drawn) [Example 34] | +++ (NAUC “+++” refers to an observed NAUC>170% of positive control) | ++ (NAUC “++” refers to an observed NAUC 170-140% of positive control) |
| O=C(Nc1cc(Cl)cc(Cl)c1)C1C(C(F)(F)F)NC2(C(=O)Nc3c(Cl)cc(Cl)cc32)C1C(=O)O (stereo not drawn) [Example 35] | +++ (NAUC “+++” refers to an observed NAUC>170% of positive control) | +++ (NAUC “+++” refers to an observed NAUC>170% of positive control) |

| SMILES | Nauc @ 3 μM | Nauc @ 10 μM |
| --- | --- | --- |
| CC(=O)N1C(COCc2ccccc2)C(C(=O)Nc2cc(Cl)cc(Cl)c2)C(C(=O)O)C12C(=O)Nc1c(Cl)cc(Cl)cc12 (stereo not drawn) [Example 36] | + (NAUC “+” refers to an observed NAUC <140% of positive control) | +++ (NAUC “+++” refers to an observed NAUC>170% of positive control) |
| O=C(Nc1cc(Cl)cc(Cl)c1F)C1C2CCCN2C2(C(=O)Nc3c(Cl)cc(Cl)cc32)C1C(=O)O (stereo not drawn) [Example 37] | +++ (NAUC “+++” refers to an observed NAUC>170% of positive control) | +++ (NAUC “+++” refers to an observed NAUC>170% of positive control) |
| CC(=O)N1C(C(C)C)C(C(=O)Nc2cc(Cl)cc(Cl)c2)C(C(=O)O)C12C(=O)Nc1c(Cl)cc(Cl)cc12 (stereo not drawn) [Example 38] | + (NAUC “+” refers to an observed NAUC <140% of positive control) | ++ (NAUC “++” refers to an observed NAUC 170-140% of positive control) |
| O=C(Nc1cc(Cl)cc(Cl)c1)C1C(C(F)(F)c2ccccc2)NC2(C(=O)Nc3c(Cl)cc(Cl)cc32)C1C(=O)O (stereo not drawn) [Example 39] | +++ (NAUC “+++” refers to an observed NAUC>170% of positive control) | +++ (NAUC “+++” refers to an observed NAUC>170% of positive control) |
| O=C(Nc1cc(Cl)cc(Cl)c1)C1C(C(F)(F)F)NC2(C(=O)Nc3c(Cl)cc(Cl)cc32)C1C(=O)O (stereo not drawn) [Example 40] | +++ (NAUC “+++” refers to an observed NAUC>170% of positive control) | +++ (NAUC “+++” refers to an observed NAUC>170% of positive control) |
| O=C(Nc1cc(Cl)cc(Cl)c1)C1CN(CC(F)(F)F)C2(C(=O)Nc3c(Cl)cc(Cl)cc32)C1C(=O)O (stereo not drawn) [Example 41] | + (NAUC “+” refers to an observed NAUC <140% of positive control) | ++ (NAUC “++” refers to an observed NAUC 170-140% of positive control) |
| O=C(Nc1cc(Cl)cc(Cl)c1F)C1C2CC(F)(F)CN2C2(C(=O)Nc3c(Cl)cc(Cl)cc32)C1C(=O)O (stereo not drawn) [Example 42] | +++ (NAUC “+++” refers to an observed NAUC>170% of positive control) | +++ (NAUC “+++” refers to an observed NAUC>170% of positive control) |
| CN1C(C(F)(F)F)C(C(=O)Nc2cc(Cl)cc(Cl)c2)C(C(=O)O)C12C(=O)Nc1c(Cl)cc(Cl)cc12 (stereo not drawn) [Example 43] | +++ (NAUC “+++” refers to an observed NAUC>170% of positive control) | ++ (NAUC “++” refers to an observed NAUC 170-140% of positive control) |
| CC(C)(C)c1cccc(CCNC(=O)C2C(C(F)(F)F)NC3(C(=O)Nc4c(Cl)cc(Cl)cc43)C2C(=O)O)c1 (stereo not drawn) [Example 45] | +++ (NAUC “+++” refers to an observed NAUC>170% of positive control) | +++ (NAUC “+++” refers to an observed NAUC>170% of positive control) |
| CC(C)(C)c1ccc(CCNC(=O)C2C3CC(F)(F)CN3C3(C(=O)Nc4c(Cl)cc(Cl)cc43)C2C(=O)O)cc1 (stereo not drawn) [Example 46] | +++ (NAUC “+++” refers to an observed NAUC>170% of positive control) | +++ (NAUC “+++” refers to an observed NAUC>170% of positive control) |
| Cc1ccccc1CCNC(=O)C1C2CC(F)(F)CN2C2(C(=O)Nc3c(Cl)cc(Cl)cc32)C1C(=O)O (stereo not drawn) [Example 47] | ++ (NAUC “++” refers to an observed NAUC 170-140% of positive control) | +++ (NAUC “+++” refers to an observed NAUC>170% of positive control) |
| Cc1cccc(CCNC(=O)C2C3CC(F)(F)CN3C3(C(=O)Nc4c(Cl)cc(Cl)cc43)C2C(=O)O)c1 (stereo not drawn) [Example 48] | ++ (NAUC “++” refers to an observed NAUC 170-140% of positive control) | +++ (NAUC “+++” refers to an observed NAUC>170% of positive control) |
| Cc1ccc(CCNC(=O)C2C3CC(F)(F)CN3C3(C(=O)Nc4c(Cl)cc(Cl)cc43)C2C(=O)O)cc1 (stereo not drawn) [Example 49] | ++ (NAUC “++” refers to an observed NAUC 170-140% of positive control) | +++ (NAUC “+++” refers to an observed NAUC>170% of positive control) |
| O=C(NCCc1ccccc1Cl)C1C2CC(F)(F)CN2C2(C(=O)Nc3c(Cl)cc(Cl)cc32)C1C(=O)O (stereo not drawn) [Example 50] | ++ (NAUC “++” refers to an observed NAUC 170-140% of positive control) | +++ (NAUC “+++” refers to an observed NAUC>170% of positive control) |
| O=C(NCCc1cccc(Cl)c1)C1C2CC(F)(F)CN2C2(C(=O)Nc3c(Cl)cc(Cl)cc32)C1C(=O)O (stereo not drawn) [Example 51] | +++ (NAUC “+++” refers to an observed NAUC>170% of positive control) | +++ (NAUC “+++” refers to an observed NAUC>170% of positive control) |
| O=C(NCCc1ccc(Cl)cc1)C1C2CC(F)(F)CN2C2(C(=O)Nc3c(Cl)cc(Cl)cc32)C1C(=O)O (stereo not drawn) [Example 52] | ++ (NAUC “++” refers to an observed NAUC 170-140% of positive control) | +++ (NAUC “+++” refers to an observed NAUC>170% of positive control) |
